The source of these data is patent publication EP0726261A1, “Herbidical 1,2,4 thiadiazoles” (American Cyanamid Company, priority 1995, dated 1996).

What all share (type): in vivo
Test [1] relates to Triticum aestivum. Put plainly: Preemergence herbicidal activity (Example 67). Also noted: herbicide rating, TRZAW: scale not given here. As to conditions: pre; 800 g/ha; rated about 1-3 weeks after treatment. On the procedure: (§1) Herbicidal evaluation of compounds of the invention is conducted on the following plant species:
(§2) The soil is a prepared horticultural substrate containing 30% peat, 20% volcanic clay, 30% bark residues and 20% polyamide/styromull in a 1:3 mixture with loamy sand. Test solutions are prepared by dissolving the test compound in acetone containing 0.5% of an alkylphenol/ethylene oxide condensate under the trademark, TRITON® X-155, and diluting with water as needed. The test solutions are applied as a spray to the 3-6 week old seedling plants at dose rates corresponding to 800g/ha in a volume equivalent to 400 L/ha. A pneumatic spraying device employing a Teejet nozzle SS 8002E operating at 3 bar is used for a predetermined time. After spraying, the treated plants are placed on greenhouse benches and cared for in a manner commensurate with conventional greenhouse practice. After 10-21 days, the treated plants are evaluated and rated according to the rating system provided below.
(§3) The soil surface is then sprayed with test solutions as described in the postemergence evaluation hereinabove. After spraying, the treated cups are placed on greenhouse benches and cared for in the manner commensurate with conventional greenhouse practice. About 1-3 weeks after treatment the cups are evaluated and rated according to the rating system provided hereinabove.

In test [2] the test system is Hordeum vulgare. Put plainly: Preemergence herbicidal activity (Example 67). Also noted: herbicide rating, HORVW: scale not given here. As to conditions: pre; 800 g/ha; rated about 1-3 weeks after treatment. The method, then: as §1, §2, §3
Test [3] concerns Alopecurus myosuroides. Briefly: Preemergence herbicidal activity (Example 67). The conditions noted are these: pre; 800 g/ha; rated about 1-3 weeks after treatment. Details: herbicide rating, ALOMY: scale not given here. The method, then:
as §1, §2, §3

In test [4] the test system is Setaria viridis. Put plainly: Preemergence herbicidal activity (Example 67). Also noted: herbicide rating, SETVI: scale not given here. The conditions noted are these: pre; 800 g/ha; rated about 1-3 weeks after treatment. On the procedure:
as §1, §2, §3

Test [5] has as its system Abutilon theophrasti. Put plainly: Preemergence herbicidal activity (Example 67). The conditions noted are these: pre; 800 g/ha; rated about 1-3 weeks after treatment. On the procedure:
as §1, §2, §3

Test [6] relates to Amaranthus retroflexus. Put plainly: Preemergence herbicidal activity (Example 67). As to conditions: pre; 800 g/ha; rated about 1-3 weeks after treatment. The method, then: as §1, §2, §3
In test [7] the test system is Chenopodium album. Put plainly: Preemergence herbicidal activity (Example 67). The conditions noted are these: pre; 800 g/ha; rated about 1-3 weeks after treatment. The method, then:
as §1, §2, §3

For test [8], the system named is Galium aparine. Briefly: Preemergence herbicidal activity (Example 67). The conditions noted are these: pre; 800 g/ha; rated about 1-3 weeks after treatment. On the procedure:
as §1, §2, §3

Test [9] relates to Helianthus annuus. Briefly: Preemergence herbicidal activity (Example 67). As to conditions: pre; 800 g/ha; rated about 1-3 weeks after treatment. The method, then: as §1, §2, §3
Test [10] concerns Ipomoea hederacea. Briefly: Preemergence herbicidal activity (Example 67). The conditions noted are these: pre; 800 g/ha; rated about 1-3 weeks after treatment. The method, then:
as §1, §2, §3

Test [11] concerns Veronica persica. Briefly: Preemergence herbicidal activity (Example 67). The conditions noted are these: pre; 800 g/ha; rated about 1-3 weeks after treatment. The method, then: as §1, §2, §3
In test [12] the test system is Zea mays. Briefly: Preemergence herbicidal activity (Example 67). The conditions noted are these: pre; 800 g/ha; rated about 1-3 weeks after treatment. On the procedure: as §1, §2, §3
Test [13] relates to Abutilon theophrasti. Briefly: Postemergence herbicidal activity (Example 67). The conditions noted are these: pos; 800 g/ha; rated after 10-21 days. On the procedure: as §1, §2
For test [14], the system named is Alopecurus myosuroides. Put plainly: Postemergence herbicidal activity (Example 67). The conditions noted are these: pos; 800 g/ha; rated after 10-21 days. The method, then:
as §1, §2

In test [15] the test system is Amaranthus retroflexus. Put plainly: Postemergence herbicidal activity (Example 67). As to conditions: pos; 800 g/ha; rated after 10-21 days. On the procedure: as §1, §2
In test [16] the test system is Chenopodium album. Put plainly: Postemergence herbicidal activity (Example 67). As to conditions: pos; 800 g/ha; rated after 10-21 days. The method, then:
as §1, §2

The subject of test [17] is Galium aparine. Briefly: Postemergence herbicidal activity (Example 67). As to conditions: pos; 800 g/ha; rated after 10-21 days. On the procedure: as §1, §2
The subject of test [18] is Helianthus annuus. Briefly: Postemergence herbicidal activity (Example 67). As to conditions: pos; 800 g/ha; rated after 10-21 days. On the procedure:
as §1, §2

The test system of test [19] is Hordeum vulgare. Put plainly: Postemergence herbicidal activity (Example 67). As to conditions: pos; 800 g/ha; rated after 10-21 days. On the procedure:
as §1, §2

Test [20] concerns Ipomoea hederacea. Put plainly: Postemergence herbicidal activity (Example 67). As to conditions: pos; 800 g/ha; rated after 10-21 days. On the procedure:
as §1, §2

Test [21] has as its system Setaria viridis. Briefly: Postemergence herbicidal activity (Example 67). As to conditions: pos; 800 g/ha; rated after 10-21 days. The method, then:
as §1, §2

The test system of test [22] is Triticum aestivum. Briefly: Postemergence herbicidal activity (Example 67). As to conditions: pos; 800 g/ha; rated after 10-21 days. The method, then: as §1, §2
Test [23] deals with Veronica persica. Put plainly: Postemergence herbicidal activity (Example 67). The conditions noted are these: pos; 800 g/ha; rated after 10-21 days. On the procedure: as §1, §2
Test [24] deals with Zea mays. Briefly: Postemergence herbicidal activity (Example 67). As to conditions: pos; 800 g/ha; rated after 10-21 days. On the procedure:
as §1, §2

As for `CC(NC(=O)c1nc(-c2ccc(Cl)cc2)ns1)c1cccs1` (racemic) [Example 26], the “herbicide rating, TRZAW” value in test [1] was 0; in [22], 2 (6-15%). Moreover, the “herbicide rating, HORVW” value is reported as 0 in [2] and 3 (16-29%) in test [19]. In addition, the “herbicide rating, ALOMY” value is recorded as 0 in test [3] and 2 (6-15%) in test [14]. Moreover, the “herbicide rating, SETVI” value is reported as 0 in [4] and 5 (45-64%) in test [21]. Also, the “herbicide rating, ABUTH” value in test [5] was 0; in test [13], 5 (45-64%). In addition, the “herbicide rating, AMARE” value is 0 in test [6] and 6 (65-79%) in test [15]. The “herbicide rating, CHEAL” value in [7] is listed as 3 (16-29%); in test [16], 5 (45-64%). Further, the “herbicide rating, GALAP” value in test [8] is given as 0; in test [17], 5 (45-64%). The “herbicide rating, HELAN” value in test [9] is 0; in test [18] it was 7 (80-90%). The “herbicide rating, IPOHE” value in test [10] is 0; in test [20], 6 (65-79%). The figures for the “herbicide rating, VERPE” value in test [11] and in [23] were 2 (6-15%) and 4 (30-44%), respectively. Besides, the “herbicide rating, ZEAMX” value in test [12] is 0; in [24], 4 (30-44%).

Consider `CC(NC(=O)c1nc(C=Cc2ccccc2)ns1)c1cccs1` (racemic) [Example 29], for which the “herbicide rating, TRZAW” value in [1] and in test [22] was 0 each time. Also, the “herbicide rating, HORVW” value in test [2] and in test [19] was 0 each time. Also, the results for the “herbicide rating, ALOMY” value in [3] and in test [14] were 0 and 2 (6-15%), respectively. In addition, the “herbicide rating, SETVI” value in [4] is 0; in test [21], 4 (30-44%). Besides, the entries for the “herbicide rating, ABUTH” value in test [5] and in [13] were 0 and 1 (1-5%), respectively. The entries for the “herbicide rating, AMARE” value in test [6] and in test [15] were 0 and 1 (1-5%), respectively. Besides, the entries for the “herbicide rating, CHEAL” value in test [7] and in test [16] were 4 (30-44%) and 3 (16-29%), respectively. For the same molecule, the “herbicide rating, GALAP” value in test [8] is given as 0; in test [17] it was 1 (1-5%). The “herbicide rating, HELAN” value in test [9] was 0; in [18] it was 4 (30-44%). Also, the “herbicide rating, IPOHE” value is recorded as 0 in test [10] and 4 (30-44%) in [20]. Besides, the “herbicide rating, VERPE” value in test [11] and in test [23] was 0 throughout. Moreover, the “herbicide rating, ZEAMX” value in [12] and in test [24] was 0 in each case.

Regarding `COCCc1nsc(C(=O)NC(C)c2cccs2)n1` (racemic) [Example 33], the entries for the “herbicide rating, TRZAW” value in [1] and in test [22] were 0 and 2 (6-15%), respectively. Also, the results for the “herbicide rating, HORVW” value in test [2] and in test [19] were 0 and 3 (16-29%), respectively. Also, the “herbicide rating, ALOMY” value in test [3] is 0; in [14] it was 3 (16-29%). In addition, the entries for the “herbicide rating, SETVI” value in test [4] and in test [21] were 0 and 6 (65-79%), respectively. In addition, the “herbicide rating, ABUTH” value in test [5] is given as 0; in [13], 2 (6-15%). Also, the “herbicide rating, AMARE” value in test [6] and in test [15] was 0 throughout. Also, the “herbicide rating, CHEAL” value in test [7] and in test [16] was 2 (6-15%) throughout. Also, the “herbicide rating, GALAP” value is 0 in test [8] and 3 (16-29%) in test [17]. Also, the entries for the “herbicide rating, HELAN” value in test [9] and in [18] were 0 and 4 (30-44%), respectively. Also, the entries for the “herbicide rating, IPOHE” value in test [10] and in [20] were 0 and 4 (30-44%), respectively. For the same molecule, the entries for the “herbicide rating, VERPE” value in test [11] and in test [23] were 5 (45-64%) and 0, respectively. Moreover, the “herbicide rating, ZEAMX” value in [12] and in test [24] was 0 each time.
